The values below come from ChEMBL document CHEMBL1221373, “Lactarane sesquiterpenoids from Lactarius subvellereus and their cytotoxicity” (Bioorg Med Chem Lett, 2010).

Structures are written as SMILES.

What all share (assay type): functional, cell-based
The subject of one assay is A549. Briefly: Cytotoxicity against human A549 cells by SRB assay.
The test system of another assay is SK-MEL-2. Briefly: Cytotoxicity against human SK-MEL-2 cells by SRB assay. For orientation: The SRB assay estimates cell density from bound dye.
The subject of a further assay is HCT-15. Briefly: Cytotoxicity against human HCT15 cells by SRB assay.
The next assay concerns SK-OV-3. Briefly: Cytotoxicity against human SKOV3 cells by SRB assay.

As to `CC1(C)C[C@H]2[C@H](O)c3cocc3C[C@](C)(O)[C@H]2C1` [FURANDIOL], the IC50 with A549, in the assay on SK-MEL-2, in the assay with HCT-15 and in the assay with SK-OV-3 was more than 30 µM in each case.

On to `CC1(C)C[C@H]2[C@H](O)C3=C(C[C@](C)(O)[C@H]2C1)C(=O)OC3` [LACTARORUFIN A], for which the IC50 – broadly, the concentration needed to halve the response being measured – in the assay with A549 is 27 µM; with SK-MEL-2, more than 30 µM; with HCT-15, 20.9 µM; in the assay on SK-OV-3 it was more than 30 µM.

On to `C[C@@H]1[C@@H]2C(=CC3=C(C(=O)O[C@H]3O)[C@@H]1O)CC(C)(C)[C@@H]2O` [SUBVELLEROLACTONES E], for which the IC50 with A549 was 19.6 µM; in the assay with SK-MEL-2 it was more than 30 µM; in the assay on HCT-15, 28.7 µM; in the assay on SK-OV-3, more than 30 µM.

Take `C[C@H]1CC2=C(COC2=O)C[C@@H]2[C@@H](O)[C@](C)(CO)C[C@@]21O` [SUBVELLEROLACTONES B]: the IC50 in the assay on A549 was 26.5 µM; with SK-MEL-2, 18.3 µM; in the assay on HCT-15, 14.2 µM; with SK-OV-3, more than 30 µM.

As for `C[C@@H]1[C@@H]2C(=CC3=C(C(=O)O[C@@H]3O)[C@@H]1O)CC(C)(C)[C@@H]2O` [SUBVELLEROLACTONES D], the half-maximal inhibitory concentration (IC50) with A549 was 25.1 µM; in the assay on SK-MEL-2, more than 30 µM; in the assay with HCT-15, 17.8 µM; in the assay with SK-OV-3 it was more than 30 µM.

`CC1(C)C[C@H]2[C@H](O)C3=C(C[C@](C)(O)[C@H]2C1)C(=O)OC3O` (stereo partly specified) [LACTAROLIDE A]: the IC50 in the assay on A549 is 22.9 µM; with SK-MEL-2 it was 28.3 µM; in the assay on HCT-15, 28.6 µM; in the assay with SK-OV-3 it was more than 30 µM.

For the molecule `COc1cccc2c1C(=O)c1c(O)c3c(c(O)c1C2=O)C[C@@](O)(C(=O)CO)C[C@@H]3O[C@H]1C[C@H](N)[C@H](O)[C@H](C)O1` [DOXORUBICIN], the IC50 with SK-MEL-2 came to 0.002 µM; with HCT-15, 0.028 µM; in the assay on SK-OV-3, 0.001 µM.

Turning to `CC1(C)C[C@@H]2[C@H]([C@H]1O)[C@@](C)(O)CC1=C(C(=O)OC1)[C@H]2O` [5-DESOXYLACTAROLIDE B], the IC50 in the assay on A549 was 17.9 µM; in the assay on SK-MEL-2, more than 30 µM; in the assay on HCT-15 it was 29.3 µM; in the assay with SK-OV-3, more than 30 µM.
